In US20150274719A1, “AMINO-SUBSTITUTED IMIDAZO[1,2-A]PYRIDINECARBOXAMIDES AND THEIR USE” (BAYER PHARMA AKTIENGESELLSCHAFT, priority 2012, published 2015):
Where a name gives a salt, the structure may show the parent alone.

These compounds were tested against T1, recombinant guanylate cyclase reporter cell line (Rattus norvegicus, UniProt P19686+P20595) (assay: Action on recombinant guanylate cyclase reporter cell line). Conditions: in some cases mean values from individual determinations.
T1 construct: expressed in transfected cells; host or cells: recombinant reporter cell line
T1 sequence (P19686 1-690): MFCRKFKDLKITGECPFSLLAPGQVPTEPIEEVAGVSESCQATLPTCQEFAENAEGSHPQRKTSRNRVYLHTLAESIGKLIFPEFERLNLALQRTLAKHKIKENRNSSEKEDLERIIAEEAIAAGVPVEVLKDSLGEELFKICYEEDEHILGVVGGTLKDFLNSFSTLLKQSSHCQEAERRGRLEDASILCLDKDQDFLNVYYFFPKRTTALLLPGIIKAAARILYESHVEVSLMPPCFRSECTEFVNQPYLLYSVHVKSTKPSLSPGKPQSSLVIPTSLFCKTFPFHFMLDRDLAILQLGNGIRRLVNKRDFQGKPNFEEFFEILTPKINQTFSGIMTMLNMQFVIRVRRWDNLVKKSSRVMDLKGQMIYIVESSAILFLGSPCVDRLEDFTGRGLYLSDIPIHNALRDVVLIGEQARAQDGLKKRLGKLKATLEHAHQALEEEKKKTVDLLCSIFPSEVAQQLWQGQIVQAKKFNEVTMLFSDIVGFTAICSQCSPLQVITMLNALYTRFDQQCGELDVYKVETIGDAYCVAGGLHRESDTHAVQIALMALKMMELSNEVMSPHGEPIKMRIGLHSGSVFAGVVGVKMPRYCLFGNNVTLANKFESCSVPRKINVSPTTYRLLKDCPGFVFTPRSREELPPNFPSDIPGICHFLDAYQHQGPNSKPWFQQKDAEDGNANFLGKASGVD
T1 sequence (P20595 1-619): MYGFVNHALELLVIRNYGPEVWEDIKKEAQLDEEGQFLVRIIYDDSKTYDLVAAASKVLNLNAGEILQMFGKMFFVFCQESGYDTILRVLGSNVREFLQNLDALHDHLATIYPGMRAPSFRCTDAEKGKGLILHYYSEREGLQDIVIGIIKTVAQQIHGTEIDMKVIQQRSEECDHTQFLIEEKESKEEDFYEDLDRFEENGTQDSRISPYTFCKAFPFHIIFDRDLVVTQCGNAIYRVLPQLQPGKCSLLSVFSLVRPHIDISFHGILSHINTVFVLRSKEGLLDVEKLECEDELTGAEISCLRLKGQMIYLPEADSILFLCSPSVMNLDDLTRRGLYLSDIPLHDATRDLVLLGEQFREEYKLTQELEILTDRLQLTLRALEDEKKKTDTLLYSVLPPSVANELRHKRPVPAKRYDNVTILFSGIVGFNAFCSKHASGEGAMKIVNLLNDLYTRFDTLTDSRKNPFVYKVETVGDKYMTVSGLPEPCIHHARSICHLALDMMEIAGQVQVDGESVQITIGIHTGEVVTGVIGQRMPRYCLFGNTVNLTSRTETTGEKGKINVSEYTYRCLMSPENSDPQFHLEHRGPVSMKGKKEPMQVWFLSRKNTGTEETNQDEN
Type: cell-based
Procedure, shortened: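 Reported value is the minimal effective concentration (MEC), in some cases a mean of single runs, taken from a recombinant rat guanylate cyclase reporter cell line.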

Compound	MEC (minimal effective concentration) [µM]
Cc1cc(OCc2c(F)ccc(C3CC3)c2F)c2nc(C)c(C(=O)NCC(C)(N)CF)n2c1 (stereo not drawn) [Example 362, N-(2-amino-3-fluoro-2-methylpropyl)-8-[(3-cyclopropyl-2,6-difluorobenzyl)oxy]-2,6-dimethylimidazo[1,2-a]pyridine-3-carboxamide]	1.00
Cc1cc(OCc2c(F)cccc2F)c2nc(C)c(C(=O)NCC(N)CCS(C)(=O)=O)n2c1 (racemic) [Example 413, rac-N-[2-amino-4-(methylsulfonyl)butyl]-8-[(2,6-difluorobenzyl)oxy]-2,6-dimethylimidazo[1,2-a]pyridine-3-carboxamide]	5.5
COCC(CN)NC(=O)c1c(C)nc2c(OCc3c(F)cccc3F)cccn12 (single isomer, unassigned) [Example 122, ent-N-(1-Amino-3-methoxypropan-2-yl)-8-[(2,6-difluorobenzyl)oxy]-2-methylimidazo[1,2-a]-pyridine-3-carboxamide ditrifluoroacetate]	1.00
Cc1cc(OCc2c(F)cccc2F)c2nc(C)c(C(=O)NCC(N)CC(F)(F)F)n2c1 (single isomer, unassigned) [Example 128, ent-N-(2-Amino-4,4,4-trifluorobutyl)-8-[(2,6-difluorobenzyl)oxy]-2,6-dimethylimidazo[1,2-a]-pyridine-3-carboxamide]	0.10
Cc1nc2c(OCc3c(F)cccc3F)cccn2c1C(=O)N[C@H]1CCCNC1 [Example 60, 8-[(2,6-difluorobenzyl)oxy]-2-methyl-N-[(3S)-piperidin-3-yl]imidazo[1,2-a]pyridine-3-carboxamide dihydrochloride]	0.30
Cc1nc2c(OCc3c(F)cccc3F)cc(Cl)cn2c1C(=O)NCCN1CC(N2CCCC2)C1 [Example 156, 6-chloro-8-[(2,6-difluorobenzyl)oxy]-2-methyl-N-{2-[3-(pyrrolidin-1-yl)azetidin-1-yl]ethyl}-imidazo[1,2-a]pyridine-3-carboxamide]	3.00
CCCC(C)(N)CNC(=O)c1cnc2c(OCc3c(F)cccc3F)cccn12 (stereo not drawn) [Example 354, ent-N-(2-amino-2-methylpentyl)-8-[(2,6-difluorobenzyl)oxy]imidazo[1,2-a]pyridine-3-carboxamide]	3.00
Cc1cc(OCc2c(F)cccc2F)c2nc(C)c(C(=O)NC3CC(C)(C)C3N)n2c1 (mixture of isomers) [Example 358, N-(2-amino-3,3-dimethylcyclobutyl)-8-[(2,6-difluorobenzyl)oxy]-2,6-dimethylimidazo[1,2-a]pyridine-3-carboxamide Formate (Isomer Mixture)]	0.30
Cc1nc2c(OCc3c(F)cccc3F)cccn2c1C(=O)NC1CC2CCCC(C1)N2C1CC1 (stereo not drawn) [Example 1, N-(9-Cyclopropyl-9-azabicyclo[3.3.1]non-3-yl)-8-[(2,6-difluorobenzyl)oxy]-2-methylimidazo[1,2-a]pyridine-3-carboxamide]	0.10
COCCNCCNC(=O)c1c(C)nc2c(OCc3c(F)cccc3F)cccn12 [Example 144, 8-[(2,6-difluorobenzyl)oxy]-N-{2-[(2-methoxyethyl)amino]ethyl}-2-methylimidazo[1,2-a]pyridine-3-carboxamide]	3.00
Cc1cc(OCc2c(F)cccc2F)c2nc(C)c(C(=O)NCC(C)(N)C3CC3)n2c1 (single isomer, unassigned; enantiomer a) [Example 260, ent-N-(2-Amino-2-cyclopropylpropyl)-8-[(2,6-difluorobenzyl)oxy]-2,6-dimethylimidazo[1,2-a]-pyridine-3-carboxamide (Enantiomer A)]	0.10
Cc1nc2c(OCc3c(F)cccc3Cl)cccn2c1C(=O)NC(CN)c1ccc(F)c(F)c1 (stereo not drawn) [Example 102, ent-N-[2-amino-1-(3,4-difluorophenyl)ethyl]-8-[(2-chloro-6-fluorobenzyl)oxy]-2-methylimidazo[1,2-a]pyridine-3-carboxamide]	1.00
CCC(C)(N)CNC(=O)c1c(C)nc2c(OCc3c(F)ccc(OC)c3F)cc(C)cn12 (stereo not drawn) [Example 360, ent-N-(2-amino-2-methylbutyl)-8-[(2,6-difluoro-3-methoxybenzyl)oxy]-2,6-dimethylimidazo[1,2-a]pyridine-3-carboxamide]	1.00
Cc1nc2c(OCc3c(F)cccc3F)cccn2c1C(=O)NCCN1CCN(C2CC2)CC1 [Example 168, N-[2-(4-Cyclopropylpiperazin-1-yl)ethyl]-8-[(2,6-difluorobenzyl)oxy]-2-methylimidazo[1,2-a]-pyridine-3-carboxamide]	1.00
Cc1nc2c(OCc3c(F)cccc3F)cccn2c1C(=O)NCCNc1ccc(F)cc1 [Example 79, 8-[(2,6-difluorobenzyl)oxy]-N-{2-[(4-fluoro-phenyl)amino]ethyl}-2-methylimidazo[1,2-a]-pyridine-3-carboxamide]	1.00
COc1cccc(C(CN)NC(=O)c2c(C)nc3c(OCc4c(F)cccc4F)cc(C)cn23)c1 (racemic) [Example 382, rac-N-[2-amino-1-(3-methoxyphenyl)ethyl]-8-[(2,6-difluorobenzyl)oxy]-2,6-dimethylimidazo[1,2-a]pyridine-3-carboxamide]	0.30
Cc1cc(OCc2c(F)cccc2F)c2nc(C)c(C(=O)NCC(C)(N)CC(C)C)n2c1 (racemic) [Example 218, rac-N-(2-Amino-2,4-dimethylpentyl)-8-[(2,6-difluorobenzyl)oxy]-2,6-dimethylimidazo[1,2-a]-pyridine-3-carboxamide]	0.10
CC=CCC(N)CNC(=O)c1c(C)nc2c(OCc3c(F)cccc3F)cc(C)cn12 (racemic) [Example 406, rac-N-[(4E/Z)-2-aminohex-4-en-1-yl]-8-[(2,6-difluorobenzyl)oxy]-2,6-dimethylimidazo[1,2-a]pyridine-3-carboxamide]	0.10
Cc1nc2c(OCc3c(F)cccc3F)cccn2c1C(=O)NCC(N)C(F)(F)C(F)F (single isomer, unassigned) [Example 231, ent-N-(2-Amino-3,3,4,4-tetrafluorobutyl)-8-[(2,6-difluorobenzyl)oxy]-2-methylimidazo[1,2-a]-pyridine-3-carboxamide]	0.30
CCC(C)(N)CNC(=O)c1c(C)nc2c(OCc3c(F)ccc(C4CC4)c3F)cc(C)cn12 (stereo not drawn) [Example 363, ent-N-(2-amino-2-methylbutyl)-8-[(3-cyclopropyl-2,6-difluorobenzyl)oxy]-2,6-dimethylimidazo[1,2-a]pyridine-3-carboxamide]	3.00
CCCC(C)(N)CNC(=O)c1c(C)nc2c(OCc3c(F)cccc3F)cc(CF)cn12 (stereo not drawn) [Example 403, ent-N-(2-amino-2-methylpentyl)-8-[(2,6-difluorobenzyl)oxy]-6-(fluoromethyl)-2-methylimidazo[1,2-a]pyridine-3-carboxamide]	0.10
Cc1cc(OCc2c(F)cccc2F)c2nc(C)c(C(=O)NCC(C)N3CCOCC3)n2c1 (single isomer, unassigned; ent-8) [Example 186, ent-8-[(2,6-Difluorobenzyl)oxy]-2,6-dimethyl-N-[2-(morpholin-4-yl)propyl]imidazo[1,2-a]-pyridine-3-carboxamide]	0.30
Cc1nc2c(OCc3c(F)cccc3F)cccn2c1C(=O)NCC(C)(N)CCO (single isomer, unassigned; enantiomer a) [Example 272, ent-N-(2-Amino-4-hydroxy-2-methylbutyl)-8-[(2,6-difluorobenzyl)oxy]-2-methylimidazo[1,2-a]-pyridine-3-carboxamide (Enantiomer A)]	5.5
Cc1nc2c(OCc3c(F)cccc3F)cccn2c1C(=O)NCC(C)N (racemic) [Example 34, rac-N-(2-aminopropyl)-8-[(2,6-difluorobenzyl)-oxy]-2-methyl-imidazo[1,2-a]pyridine-3-carboxamide dihydrochloride]	1.00
